{
  "source": "paper PMC4979471",
  "about": "(Cell Death Discovery, 2015)",
  "assay_in_all_cases": "Kinase selectivity, P33-radiolabeled assay",
  "assay_type_in_all_cases": "biochemical",
  "conditions_in_all_cases": "10 μM ATP",
  "key": {"NEK3": {"biological_target": "T1, NEK3 (Homo sapiens, UniProt P51956)", "T1 construct": "purchased Reaction Biology Corp", "T1 sequence (P51956 1-506)": "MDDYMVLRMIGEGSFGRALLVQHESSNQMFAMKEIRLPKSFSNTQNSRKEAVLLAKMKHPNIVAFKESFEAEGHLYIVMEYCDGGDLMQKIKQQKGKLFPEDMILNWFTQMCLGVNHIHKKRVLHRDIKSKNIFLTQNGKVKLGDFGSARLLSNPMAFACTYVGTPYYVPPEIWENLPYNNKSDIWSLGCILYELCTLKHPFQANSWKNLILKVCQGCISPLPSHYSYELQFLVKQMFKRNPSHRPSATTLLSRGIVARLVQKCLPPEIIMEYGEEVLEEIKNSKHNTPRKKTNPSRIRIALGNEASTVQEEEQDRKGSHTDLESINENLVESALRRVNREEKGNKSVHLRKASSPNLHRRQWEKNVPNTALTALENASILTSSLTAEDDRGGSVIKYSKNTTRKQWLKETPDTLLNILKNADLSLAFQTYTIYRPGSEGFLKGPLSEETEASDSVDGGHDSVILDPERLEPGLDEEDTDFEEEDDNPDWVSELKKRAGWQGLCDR", "procedure,_shortened": "(§1)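 Percent residual kinase activity versus DMSO is reported. Conditions: compound at 10 μM, ATP at 10 μM, n = 2.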"}, "EPHA3": {"biological_target": "T2, EPHA3 (Homo sapiens, UniProt P29320)", "T2 construct": "purchased Reaction Biology Corp", "T2 sequence (P29320 21-983)": "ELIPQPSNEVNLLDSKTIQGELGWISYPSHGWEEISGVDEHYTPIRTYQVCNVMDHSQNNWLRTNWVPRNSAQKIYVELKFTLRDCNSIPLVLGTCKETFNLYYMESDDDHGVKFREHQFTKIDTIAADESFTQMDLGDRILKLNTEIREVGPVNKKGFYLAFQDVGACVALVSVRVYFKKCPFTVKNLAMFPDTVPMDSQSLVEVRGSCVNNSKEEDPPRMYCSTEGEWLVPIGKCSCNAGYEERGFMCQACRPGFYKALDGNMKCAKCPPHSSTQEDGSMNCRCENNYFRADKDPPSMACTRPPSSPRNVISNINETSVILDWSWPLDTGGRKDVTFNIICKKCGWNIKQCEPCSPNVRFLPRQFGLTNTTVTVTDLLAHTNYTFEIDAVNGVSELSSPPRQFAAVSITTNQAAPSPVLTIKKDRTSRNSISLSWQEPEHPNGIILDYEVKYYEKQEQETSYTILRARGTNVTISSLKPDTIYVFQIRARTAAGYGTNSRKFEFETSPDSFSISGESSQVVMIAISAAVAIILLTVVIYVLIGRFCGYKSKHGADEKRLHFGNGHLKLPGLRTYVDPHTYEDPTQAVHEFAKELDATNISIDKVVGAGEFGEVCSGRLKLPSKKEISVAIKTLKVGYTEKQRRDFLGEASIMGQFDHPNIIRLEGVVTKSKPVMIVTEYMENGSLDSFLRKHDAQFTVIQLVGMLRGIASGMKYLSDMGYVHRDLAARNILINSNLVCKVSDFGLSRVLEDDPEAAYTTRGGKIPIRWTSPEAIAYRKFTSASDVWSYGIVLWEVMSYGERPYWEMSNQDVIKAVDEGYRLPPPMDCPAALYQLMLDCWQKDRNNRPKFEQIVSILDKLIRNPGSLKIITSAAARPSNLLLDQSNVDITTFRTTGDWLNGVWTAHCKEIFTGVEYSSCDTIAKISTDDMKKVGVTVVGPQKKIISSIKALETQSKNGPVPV", "procedure,_shortened": "as §1"}, "PAK4": {"biological_target": "T3, PAK4 (Homo sapiens, UniProt O96013)", "T3 construct": "purchased Reaction Biology Corp", "T3 sequence (O96013 whole entry)": "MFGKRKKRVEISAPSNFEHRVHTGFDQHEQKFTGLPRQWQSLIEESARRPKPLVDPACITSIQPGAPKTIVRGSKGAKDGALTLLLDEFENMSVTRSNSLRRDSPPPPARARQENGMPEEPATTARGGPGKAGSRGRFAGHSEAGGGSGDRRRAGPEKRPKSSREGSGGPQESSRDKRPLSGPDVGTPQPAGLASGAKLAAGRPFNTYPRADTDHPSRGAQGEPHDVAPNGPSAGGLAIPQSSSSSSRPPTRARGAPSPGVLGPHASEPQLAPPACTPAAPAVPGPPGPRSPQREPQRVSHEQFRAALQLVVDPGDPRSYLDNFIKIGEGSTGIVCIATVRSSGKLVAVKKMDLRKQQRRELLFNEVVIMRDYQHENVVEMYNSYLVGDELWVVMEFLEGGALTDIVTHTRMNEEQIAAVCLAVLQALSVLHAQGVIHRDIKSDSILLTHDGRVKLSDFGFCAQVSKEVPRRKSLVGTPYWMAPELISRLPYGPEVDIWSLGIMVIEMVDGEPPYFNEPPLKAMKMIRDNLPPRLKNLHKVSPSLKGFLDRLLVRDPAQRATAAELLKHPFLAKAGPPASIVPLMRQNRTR", "procedure,_shortened": "as §1"}, "MEKK2": {"biological_target": "T4, MEKK2 (Homo sapiens, UniProt Q9Y2U5)", "T4 construct": "purchased Reaction Biology Corp", "T4 sequence (Q9Y2U5 1-619)": "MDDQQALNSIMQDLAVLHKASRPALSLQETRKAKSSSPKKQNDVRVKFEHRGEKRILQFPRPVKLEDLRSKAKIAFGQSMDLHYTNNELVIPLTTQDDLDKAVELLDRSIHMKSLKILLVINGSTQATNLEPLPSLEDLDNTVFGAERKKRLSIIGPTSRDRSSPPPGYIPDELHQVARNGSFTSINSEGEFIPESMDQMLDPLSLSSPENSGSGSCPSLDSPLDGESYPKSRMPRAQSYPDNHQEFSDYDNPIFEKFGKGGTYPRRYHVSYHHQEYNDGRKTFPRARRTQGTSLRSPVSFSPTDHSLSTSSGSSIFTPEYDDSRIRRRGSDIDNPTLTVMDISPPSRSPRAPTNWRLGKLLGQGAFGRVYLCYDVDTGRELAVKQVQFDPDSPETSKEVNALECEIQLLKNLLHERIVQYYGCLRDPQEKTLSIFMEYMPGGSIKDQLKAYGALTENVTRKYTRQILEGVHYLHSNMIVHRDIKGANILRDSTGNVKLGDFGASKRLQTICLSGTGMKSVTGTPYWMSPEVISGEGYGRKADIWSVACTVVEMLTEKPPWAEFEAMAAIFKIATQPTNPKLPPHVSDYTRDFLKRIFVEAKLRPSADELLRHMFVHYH", "procedure,_shortened": "as §1"}, "TTBK2": {"biological_target": "T5, TTBK2 (Homo sapiens, UniProt Q6IQ55)", "T5 construct": "purchased Reaction Biology Corp", "T5 sequence (Q6IQ55 whole entry)": "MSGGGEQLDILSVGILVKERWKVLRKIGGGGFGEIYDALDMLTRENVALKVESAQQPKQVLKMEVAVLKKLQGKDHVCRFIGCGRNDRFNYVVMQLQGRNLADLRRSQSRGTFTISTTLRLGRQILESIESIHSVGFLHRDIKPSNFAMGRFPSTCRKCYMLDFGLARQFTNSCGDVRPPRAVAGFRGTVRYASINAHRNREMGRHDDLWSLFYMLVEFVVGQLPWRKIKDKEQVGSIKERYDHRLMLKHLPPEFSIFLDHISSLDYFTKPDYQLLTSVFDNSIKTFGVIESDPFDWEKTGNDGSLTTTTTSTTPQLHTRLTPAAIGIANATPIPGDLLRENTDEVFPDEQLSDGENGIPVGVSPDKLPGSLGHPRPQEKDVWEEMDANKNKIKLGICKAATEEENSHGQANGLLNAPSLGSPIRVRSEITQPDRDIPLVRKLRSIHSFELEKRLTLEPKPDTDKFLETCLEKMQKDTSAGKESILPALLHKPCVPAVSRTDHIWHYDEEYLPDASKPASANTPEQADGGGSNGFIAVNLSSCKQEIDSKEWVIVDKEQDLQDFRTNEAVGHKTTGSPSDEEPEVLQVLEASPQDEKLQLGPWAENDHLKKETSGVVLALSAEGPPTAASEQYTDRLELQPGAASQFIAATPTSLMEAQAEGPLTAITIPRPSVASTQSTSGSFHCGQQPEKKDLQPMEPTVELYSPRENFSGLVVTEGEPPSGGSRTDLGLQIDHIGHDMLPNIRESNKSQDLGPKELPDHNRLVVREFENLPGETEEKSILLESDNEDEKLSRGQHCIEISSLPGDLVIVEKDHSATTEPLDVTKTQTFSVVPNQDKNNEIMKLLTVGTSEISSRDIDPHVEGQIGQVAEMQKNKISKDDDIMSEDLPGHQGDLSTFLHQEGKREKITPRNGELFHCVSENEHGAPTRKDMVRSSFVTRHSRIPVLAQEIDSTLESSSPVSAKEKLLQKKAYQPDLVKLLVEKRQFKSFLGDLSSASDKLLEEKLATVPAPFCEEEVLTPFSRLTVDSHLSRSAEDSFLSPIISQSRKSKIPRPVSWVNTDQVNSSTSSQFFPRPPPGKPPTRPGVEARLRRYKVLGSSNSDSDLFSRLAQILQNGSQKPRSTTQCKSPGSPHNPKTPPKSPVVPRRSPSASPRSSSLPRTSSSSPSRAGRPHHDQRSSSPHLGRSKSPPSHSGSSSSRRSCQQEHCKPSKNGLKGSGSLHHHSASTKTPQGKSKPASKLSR", "procedure,_shortened": "as §1"}, "[1]": {"conditions": "read-out: % Enzyme Activity (relative to DMSO controls) AVG"}, "[2]": {"conditions": "read-out: % Enzyme Activity (relative to DMSO controls) Data 1"}, "[3]": {"conditions": "read-out: % Enzyme Activity (relative to DMSO controls) Data 2"}},
  "note": "Read-outs that look alike come from different tables or passages of the source.",
  "data": [
    {"smiles": "CC(C)(C)C(=O)N1N=CC[C@H]1c1ccccc1", "note": "[GSK′963]", "values": [
      {"measurement": "remaining activity at 10 µM", "setting": "NEK3; [1]", "result": 93.5, "unit": "%"},
      {"measurement": "remaining activity at 10 µM", "setting": "NEK3; [2]", "result": 93.2, "unit": "%"},
      {"measurement": "remaining activity at 10 µM", "setting": "NEK3; [3]", "result": 93.8, "unit": "%"},
      {"measurement": "remaining activity at 10 µM", "setting": "EPHA3; [1]", "result": 91.8, "unit": "%"},
      {"measurement": "remaining activity at 10 µM", "setting": "EPHA3; [2]", "result": 94.4, "unit": "%"},
      {"measurement": "remaining activity at 10 µM", "setting": "EPHA3; [3]", "result": 89.2, "unit": "%"},
      {"measurement": "remaining activity at 10 µM", "setting": "PAK4; [1]", "result": 93, "unit": "%"},
      {"measurement": "remaining activity at 10 µM", "setting": "PAK4; [2]", "result": 95.4, "unit": "%"},
      {"measurement": "remaining activity at 10 µM", "setting": "PAK4; [3]", "result": 90.5, "unit": "%"},
      {"measurement": "remaining activity at 10 µM", "setting": "MEKK2; [1]", "result": 114, "unit": "%"},
      {"measurement": "remaining activity at 10 µM", "setting": "MEKK2; [2]", "result": 114, "unit": "%"},
      {"measurement": "remaining activity at 10 µM", "setting": "MEKK2; [3]", "result": 115, "unit": "%"},
      {"measurement": "remaining activity at 10 µM", "setting": "TTBK2; [1]", "result": 97.8, "unit": "%"},
      {"measurement": "remaining activity at 10 µM", "setting": "TTBK2; [2]", "result": 98.5, "unit": "%"},
      {"measurement": "remaining activity at 10 µM", "setting": "TTBK2; [3]", "result": 97.1, "unit": "%"}
    ]}
  ]
}
